Eleven molecules from patent publication US8178534B2, “cMET inhibitors” (Takeda Pharmaceutical Company Limited, priority 2008, dated 2012) can be followed below.

SMILES strings stand for the structures. Counter-ions that a name gives are not always drawn.

The test deals with T1, cMET enzyme (amino acids 1023-1360) (Homo sapiens, UniProt P08581).
T1 construct: The cMET enzyme (amino acids 1023-1360) nominally at 24 μM was held at −80° C. until use; His tag (N, cleaved yes); made in house; host or cells: Sf9 cells
T1 sequence (P08581 1023-1360): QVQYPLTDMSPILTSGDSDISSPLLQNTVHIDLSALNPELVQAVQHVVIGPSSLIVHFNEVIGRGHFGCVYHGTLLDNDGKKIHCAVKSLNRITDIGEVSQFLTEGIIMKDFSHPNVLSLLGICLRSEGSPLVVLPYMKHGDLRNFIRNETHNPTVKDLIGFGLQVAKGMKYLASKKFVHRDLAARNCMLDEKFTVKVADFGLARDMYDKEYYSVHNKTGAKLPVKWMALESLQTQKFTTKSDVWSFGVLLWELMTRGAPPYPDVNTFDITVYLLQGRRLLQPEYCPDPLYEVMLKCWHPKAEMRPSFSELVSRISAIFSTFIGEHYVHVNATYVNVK
Put plainly: Determination of inhibition of cMET (capillary electrophoresis, phosphorylated peptide product). The class given is biochemical. The conditions noted are these: 1.2 nM cMET, 50 μM ATP, 2 μM FL-2 peptide, 2 hours room temperature. The method, then:
The inhibitory property of a compound relative to cMET catalysis was determined by use of capillary electrophoresis with fluorescence quantification of a phosphorylated peptide product for cMET. The cMET enzyme (amino acids 1023-1360) nominally at 24 μM was held at −80° C. until use, in a buffer containing 25 mM Tris-HCl pH 8.5, 150 mM NaCl, 3 mM DTT and 10% glycerol. […] Following purification, the tag was removed and enzyme concentrated. […] To activate the enzyme fully, frozen cMET was thawed quickly and activated with the addition of assay buffer (50 mM HEPES pH 7.5, 10 mM NaCl, 10 mM MgCl2, 0.01% Brij® 35), 1.25 mM ATP, 5 mM MgCl2 and 5 mM DTT at a cMET concentration of 2.4 μM followed by a 30 minute incubation at room temperature. […] Next, cMET enzyme (1.2 nM final) was added and the system incubated at room temperature for 20 minutes. Catalysis was initiated by the addition of ATP (50 μM final). Assays were incubated at room temperature for 2 hours then quenched by the addition of EDTA. Phosphorylated peptide product was quantified by monitoring fluorescence during capillary electrophoresis with Caliper LifeSciences LabChip 3000 under the following settings: base pressure=−0.1 psi, screen pressure=−1.2 psi, downstream voltage=−500 V, upstream voltage=−2300 V, chip type=TC372. The elution buffer was identical to the assay buffer except for the absence of DTT, FL-2 and ATP and the addition of 0.1% coating reagent (Caliper). […] Peak height was quantified and used to determine enzyme velocities.
IC50 values were calculated by non-linear least squares curve fitting of the standard IC50 equation to background-corrected cMET velocity versus compound concentration.
As to `CNC(=O)c1ccc(-c2ccc3nnc(C(F)(F)c4ccc5nc(NC(=O)C6CC6)cn5n4)n3c2)cc1` [Compound 95, 4-(3-((2-(cyclopropanecarboxamido)imidazo[1,2-b]pyridazin-6-yl)difluoromethyl)-[1,2,4]triazolo[4,3-a]pyridin-6-yl)-N-methylbenzamide], the IC50 (in general, the concentration needed to halve the response being measured) was below 30 nM. The result for `COCCOCc1ccc2nnc(Sc3ccc4nc(NC(=O)C5CC5)cn4n3)n2c1` [Compound 112, N-(6-(6-((2-methoxyethoxy)methyl)-[1,2,4]triazolo[4,3-a]pyridin-3-ylthio)imidazo[1,2-b]pyridazin-2-yl)cyclopropanecarboxamide] reads 100 to 249 nM. `Cc1ccncc1-c1ccc2nnc(C(F)(F)c3ccc4nc(NC(=O)C5CC5)cn4n3)n2c1` [Compound 94, N-(6-(difluoro(6-(4-methylpyridin-3-yl)-[1,2,4]triazolo[4,3-a]pyridin-3-yl)methyl)imidazo[1,2-b]pyridazin-2-yl)cyclopropanecarboxamide] gave an IC50 of 250 to 630 nM. Then `Cn1cc(-c2ccc3nnc(C(F)(F)c4ccc5nc(NC(=O)C6CC6)cn5n4)n3c2)cn1` [45 (TFA Salt), N-(6-(difluoro(6-(1-methyl-1H-pyrazol-4-yl)-[1,2,4]triazolo[4,3-a]pyridin-3-yl)methyl)imidazo[1,2-b]pyridazin-2-yl)cyclopropanecarboxamide], with 30 to 59 nM; and `Cn1cc(-c2ccc3nnc(Sc4ccc5nc(NC(=O)C6CC6)cn5n4)n3c2)ccc1=O` [Compound 105, N-(6-(6-(1-methyl-6-oxo-1,6-dihydropyridin-3-yl)-[1,2,4]triazolo[4,3-a]pyridin-3-ylthio)imidazo[1,2-b]pyridazin-2-yl)cyclopropanecarboxamide], with below 30 nM; and `Cc1c(F)ccc2nnc(Sc3ccc4nc(NC(=O)C5CC5)cn4n3)n12` [Compound 113, N-(6-(6-fluoro-5-methyl-[1,2,4]triazolo[4,3-a]pyridin-3-ylthio)imidazo[1,2-b]pyridazin-2-yl)cyclopropanecarboxamide], with 250 to 630 nM.

In turn, `CCn1cc(-c2ccc3nnc(Sc4ccc5nc(NC(=O)C6CC6)cn5n4)n3c2)ccc1=O` [Compound 106, N-(6-(6-(1-ethyl-6-oxo-1,6-dihydropyridin-3-yl)-[1,2,4]triazolo[4,3-a]pyridin-3-ylthio)imidazo[1,2-b]pyridazin-2-yl)cyclopropanecarboxamide] showed an IC50 below 30 nM.

As to `O=C(Nc1cn2cc(Cn3nnc4ncccc43)ccc2n1)C(F)(F)F` [Compound 2, N-(6-((1H-[1,2,3]triazolo[4,5-b]pyridin-1-yl)methyl)imidazo-[1,2-a]pyridin-2-yl)-2,2,2-trifluoroacetamide], the IC50 is above 100 nM. Then `NC(=O)c1ccc(-c2ccc3nnc(C(F)(F)c4ccc5nc(NC(=O)C6CC6)cn5n4)n3c2)cc1` [Compound 89, 4-(3-((2-(cyclopropanecarboxamido)imidazo[1,2-b]pyridazin-6-yl)difluoromethyl)-[1,2,4]triazolo[4,3-a]pyridin-6-yl)benzamide], with below 30 nM; and `Cc1ccn2c(Sc3ccc4nc(NC(=O)C5CC5)cn4n3)nnc2c1` [Compound 43, N-(6-(7-methyl-[1,2,4]triazolo[4,3-a]pyridin-3-ylthio)imidazo[1,2-b]pyridazin-2-yl)cyclopropanecarboxamide], with above 100 nM; and `O=C(Nc1cn2cc(Cn3nnc4cccnc43)ccc2n1)C(F)(F)F` [Compound 1, N-(6-((3H-[1,2,3]triazolo[4,5-b]pyridin-3-yl)methyl)imidazo[1,2-a]pyridin-2-yl)-2,2,2-trifluoroacetamide], with above 100 nM.
